Measured values: PubChem BioAssay AID179 (DTP/NCI, 2004)
Calls of active or inactive are those of the source.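 Rule for the calls: active = compounds giving half or more protection of infected cells from virus-caused growth loss, again on retest; inactive = the rest.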

Tested on: CEM cells HIV-1 protection, formazan growth assay
Test: NCI AIDS Antiviral Assay
Details: for IC50: measured here: growth of uninfected CEM cells
Description: The ability of compounds to protect human CEM cells from HIV-1 infection is measured as a screen for new compounds capable of inhibiting the HIV virus. Five concentrations of drug were tested on uninfected and infected cells and cell growth was measured using a soluble formazan assay. […] Compounds that provided at least 50% protection were retested. Compounds that provided at least 50% protection on retest were listed as moderately active. Compounds that reproducibly provided 100% protection were listed as confirmed active. […] Note that the inability to provide protection could be due to toxicity.

| Structure (SMILES) | EC50 | IC50 | outcome |
| --- | --- | --- | --- |
| CC1=CC2(O)OC3(CC2=C(C)C)C(C)CCC13 (stereo not given) | > 200 µM | > 200 µM |  |
| NC(N)=NS(=O)(=O)c1ccc(NC(=O)c2ccc(Cl)c3c(Nc4ccc(S(=O)(=O)N=C(N)N)cc4)c4ccccc4nc23)cc1 | > 28.2 µM | > 28.2 µM |  |
| CCOC(=O)c1cc2sc(NC(=O)c3ccccc3)nc2o1 |  |  | inactive |
| CN1[C@H]2C=CC(=O)[C@]1(Cl)[C@H]1C(=O)N(c3ccccc3)C(=O)[C@@H]21 | > 162 µM | 3.89 µM |  |
| CCC(CCN)(CCN)[N+](=O)[O-] | > 200 µM | > 200 µM |  |
| CN(C)c1nc(N(C)C)nc(N2C(=O)CCC2=O)n1 | > 200 µM | > 200 µM |  |
| CC1=C(C(=O)Nc2ccccc2C)C(c2ccc(Cl)c(Cl)c2)C(C(=O)Nc2ccccc2C)=C(C)N1 |  |  | inactive |
| COc1ccc2c(c1)c(C(=O)O)cc(=O)n2C | > 200 µM | > 200 µM |  |
| CC1NC(=O)CC(c2ccccc2)N(N=O)C1c1ccccc1 (stereo not given) |  |  | inactive |
| COc1ccc(SSc2ccc(OC)cc2)cc1 | > 200 µM | > 200 µM |  |
| N#CC(=C(c1ccccc1)c1ccccc1)c1ccccc1 | > 151 µM | > 151 µM |  |
| CCOC(=O)/C=C/c1ccc2c(c1)OC(c1ccc(O)c(OC)c1)C(CO)O2 (stereo not given) | > 129 µM | 24.5 µM |  |
| CC(O)CN1C(=O)C2C3C=CC(C3)C2C1=O (stereo not given) | > 200 µM | > 200 µM |  |
| C=C(C)CCC(=O)[C@](C)(O)[C@H]1[C@H](O)C[C@@]2(C)[C@@H]3CCc4c(cc(OC5OC(CO)C(O)C(O)C5O)c(O)c4C)C3(C)C(=O)C[C@]12C (stereo not given in full) | > 200 µM | > 200 µM |  |
| C=C1CN(S(=O)(=O)c2ccc(C)cc2)CCN(Cc2ccccc2)CCN(S(=O)(=O)c2ccc(C)cc2)C1 | > 200 µM | > 200 µM |  |
| O=C(c1ccc(Cl)cc1)c1ccc(OCCCCCCCCCCOc2ccc(C(=O)c3ccc(Cl)cc3)cc2)cc1 | > 16.6 µM | > 16.6 µM |  |
| CN1C(=O)CCCCCCCCCCSc2ccccc21 | > 200 µM | 40.7 µM |  |
| Cn1cnc([N+](=O)[O-])c1Sc1nccn1-c1ccccc1 | > 832 µM | 9.33 µM |  |
| CCOC(=O)C1C2CCC(C2)C1(CCl)C(=O)OCC (stereo not given) | > 251 µM | > 251 µM |  |
| CCOC(=O)/N=c1/nc2ccn(C)c2c(NC(=O)OCC)s1 | > 209 µM | > 209 µM |  |
| O=C1Sc2ccccc2Cn2cccc21 | 186 µM | > 200 µM |  |

| Structure (SMILES) | EC50 | IC50 | outcome |
| --- | --- | --- | --- |
| CCOC(=O)c1cc(-c2ccc3ccccc3n2)c(O)c2cc3ccccc3nc12 | > 200 µM | > 200 µM |  |
| O=C1CCN2CCC(=O)c3c2c(cc2ccccc32)N1 | > 26.9 µM | > 26.9 µM |  |
| CC(C)(C)OC(=O)N1CCc2[nH][nH]c(=O)c2C1 | > 200 µM | > 200 µM |  |
| Cc1ccc(S(=O)(=O)N2CCCCCC2)cc1 | > 200 µM | > 100 µM |  |
| C=CCn1c(-c2ccc([N+](=O)[O-])cc2)csc1=N | > 200 µM | 26.3 µM |  |
| COc1cc(/C=C2\SC(=S)N(C=C3C(=O)NC(=O)NC3=O)C2=O)cc(OC)c1OC | > 200 µM | 23.4 µM |  |
| O=C1NS(=O)(=O)C2C(Cl)=C(Cl)C3(Cl)C2C13Cl (stereo not given) | > 776 µM | > 776 µM |  |
| Cc1ccc(N2CC(=O)N3CCCC(c4ccccc4)N3C(=O)C2)cc1 (stereo not given) |  |  | inactive |
| COc1ccc2c(C)cc(N/N=C/c3ccc(C)s3)nc2c1 | > 200 µM | 9.12 µM |  |
| C[C@]12CCCCC1(O)C[C@H](C(=O)O)CC2 (stereo not given in full) |  |  | inactive |
| O=P(CCOc1ccccc1OCCP(=O)(c1ccccc1)c1ccc2c(c1)OCCOCCOCCOCCO2)(c1ccccc1)c1ccc2c(c1)OCCOCCOCCOCCO2 (stereo not given) | > 263 µM | > 263 µM |  |
| OC1C(CBr)OC(OC[C@H](COCc2ccccc2)OCc2ccccc2)C(O)C1O (stereo not given in full) | > 214 µM | > 100 µM |  |
| Cc1ccc(NCCNCCO)c2c(=O)c3ccccc3sc12 |  |  | inactive |
| CC1(C)CC(=O)C(/C=N/c2nc(-c3ccccc3)cs2)=C(O)C1 | > 200 µM | > 200 µM |  |
| COC1/C=C/OC2(C)Oc3c(C)c(O)c4c(O)c(c(C=NN5C(C)CC(Cc6ccccc6)CC5C)c(O)c4c3C2=O)NC(=O)/C(C)=C/C=C/C(C)C(O)C(C)C(O)C(C)C(OC(C)=O)C1C (stereo not given) | > 200 µM | 8.71 µM |  |
| COc1ccccc1NC(=O)C(=O)C(c1cnc2ccc([N+](=O)[O-])cc2n1)[N+](=O)[O-] (stereo not given) | > 316 µM | 89.1 µM |  |
| CCC1=NC(N/N=C/c2ccco2)=N/C1=C\c1ccco1 | > 200 µM | 110 µM |  |
| N=C(N)SCc1c2ccccc2c(CSC(=N)N)c2ccccc12 | > 20 µM | 3.16 µM |  |
| COC(=O)[C@]1(C)CCC[C@]2(C)c3cc(C(C)=O)c(C(C)C)cc3CC[C@@H]12 | > 200 µM | 25.7 µM |  |
| CC1c2c(cc(OC(=O)c3cccc(S(=O)(=O)F)c3)nc2OC(=O)c2cccc(S(=O)(=O)F)c2)C(=O)N1Cc1ccccc1 (stereo not given) | > 11.2 µM | 1.86 µM |  |
| CC(C)(C)OC(=O)[N+](=N)C(=O)C1CCC(=O)N1C(=O)OCc1ccccc1 (stereo not given) | > 200 µM | > 200 µM |  |

| Structure (SMILES) | EC50 | IC50 | outcome |
| --- | --- | --- | --- |
| O[C@H]1c2cccn2-c2ccccc2S[C@H]1c1ccccc1 | > 83.2 µM | 43.7 µM |  |
| CC(=O)OCC1OC(n2ncc(=O)[nH]c2=O)C(OC(C)=O)C1OC(C)=O (stereo not given) | > 2 µM | 1.05 µM |  |
| CCCC[N+](CCCC)=c1cc(-c2ccc(Cl)cc2)ss1 | > 20 µM | 0.708 µM |  |
| C/C(=N\Nc1ccccc1)c1sc(-c2nc(C)c(/C(C)=N/Nc3ccccc3)s2)nc1C | > 15.5 µM | > 15.5 µM |  |
| CN1NC2(CCCCC2)ON=C1c1ccccc1 |  |  | inactive |
| O=C(CCc1ccc(O)cc1)NCCc1cccc(OCc2ccccc2)c1 | > 200 µM | 26.3 µM |  |
| CCOC(=O)C(NC(=O)CC)(Nc1ccc(F)c(Cl)c1)C(F)(F)F (stereo not given) | > 200 µM | > 200 µM |  |
| Cc1ccc(OC2CC(n3cnc4c(=O)[nH]c(Br)nc43)OC2Oc2ccc(C)cc2)cc1 (stereo not given) | > 200 µM | 25.1 µM |  |
| C#CCSc1nnnn1-c1ccc(Br)c(C)c1 | > 200 µM |  |  |
| COC(=O)C1Cc2ccc3c(c2C1=O)CCCC3 (stereo not given) | > 200 µM | 186 µM |  |
| O=[N+]([O-])c1c(Cl)ccc2nsnc12 | > 316 µM | 2.04 µM |  |
| COc1ccc(/C=C(\C(=C/c2ccc(OC)cc2)[N+](=O)[O-])[N+](=O)[O-])cc1 | > 200 µM | 4.57 µM |  |
| CCC(=O)OC1CCC2C3CCC(=O)OC3C(C)(CCC(=O)O)CC12C (stereo not given) | > 200 µM | 1.91 µM |  |
| O=C1N[C@H]2c3c(Cl)sc(Cl)c3/C(=N/O)[C@H]2O1 | > 200 µM | 95.5 µM |  |
| COc1ccc(N=NC(=O)NC(CC(C)C)C(=O)NCC(=O)O)cc1 (stereo not given) | > 200 µM | 3.72 µM |  |
| O=C1CCCCCC1CC(Sc1ccccc1)Sc1ccccc1 (stereo not given) | > 200 µM | 16.2 µM |  |
| COc1cc2c(cc1OC)CC(=O)Nc1cc(OC)c(OC)cc1CC2 |  |  | inactive |
| O=C1NN=C(c2c[nH]c3ccccc23)CC1NCc1ccccc1 (stereo not given) | > 200 µM | > 200 µM |  |
| CO/C=C/CCCN(CC#N)Cc1ccccc1 | > 27.5 µM | > 27.5 µM |  |
| C=Cc1c(-c2ccccc2)cnc2[nH]c3ccccc3c12 | > 13.8 µM | > 13.8 µM |  |
